Reference: US10273290B2, “Hydrocarbon double-stapled stabilized HIV-1 GP41 heptad repeat domain peptides” (DANA-FARBER CANCER INSTITUTE, INC., priority 2009, dated 2019)
Entries after “also recorded” stand apart in the source; their conditions may differ. Bridge positions count the residues as written; N and C are the ends. Square brackets hold non-standard residues; d marks the D form. Peptide text beside a SMILES is read from it. S5 = C=CCCC[C@](C)(N)C(=O)O; Nle = CCCC[C@H](N)C(=O)O

How the values were obtained:
[1] = Pharmacokinetics in mice, intravenous or oral gavage; type: in vivo, Male C57/BL6 mice
Description: Peptides were incubated (5-10 μg) with mouse plasma at 37° C. or injected (10, mg/kg) by tail vein into male C57/BL6 mice. […] For ex vivo serum stability studies, peptide half-lives were calculated by nonlinear regression analysis of exponential decay curves plotted using Prism software (Graphpad). In vivo plasma concentrations at the indicated time points were used to calculate plasma half-life, peak plasma levels, total plasma clearance, and apparent volume of distribution using noncompartmental analysis.
Blood samples withdrawn at 30 minutes by retro-orbital bleed were subjected to quantitation using LC/MS-based blood tests.

[2] = test system: HIV-1 HXBc2 virus bearing HR1 double mutations V38A/N42T and V38E/N42S; test: HIV-1 infectivity assay, enfuvirtide-resistant HR1 double mutants; type: cell-based
Description: (§1) HIV-1 infectivity assays were performed using known methods (Madani et al., 2007 Inhibition of human immunodeficiency virus envelope glycoprotein-mediated single cell lysis by low-molecular-weight antagonists of viral entry. J Virol, 81: 532-538; and Si et al., 2001 Envelope glycoprotein determinants of neutralization resistance in a simian-human immunodeficiency virus (SHIV-HXBc2P 3.2) derived by passage in monkeys. J Virol, 75:4208-4218; both incorporated herein by reference). […] Virus-containing supernatants were harvested 24-30 hr after transfection, filtered, aliquoted, and stored at −80° C. Target cells were seeded at a density of 6×10^3 cells/well in 96-well plates 24 hours prior to infection. Cf2Th-CD4-CCR5 cells were used for infections by viruses with the ADA, YU2, and A-MLV envelope glycoproteins, and Cf2Th-CD4-CXCR4 cells used for HXBc2, HXBc2P 3.2, and A-MLV. On the day of infection, the structured peptides (0-3 μM) were added to recombinant viruses (10,000 RT units) to a final volume of 50 μL and incubated at 37° C. for 30 min. Media was then removed and the target cells incubated with virus-peptide mixture for 48 hours at 37° C. The media was again removed and the cells lysed with 30 μL of passive lysis buffer (Promega) and three freeze-thaw cycles.

Chymotrypsin, pH 7 = test: Chymotrypsin, pH 7
Source text: Table printed on a drawing sheet, FIG. 17C
Title: Chymotrypsin, pH 7
First reader's note: The table also serves as the legend of the plot of fraction intact over time; the line and marker symbols are left out.

[3] = test system: resistant primary R5 isolate YU2; test: Luciferase-based HIV-1 infectivity assay, YU2; type: cell-based; settings: compared to T649v
Source text: Also the direct inhibitory activity of modified polypeptides and the antibodies targeted thereto can be quantified based upon their capacity to directly block HIV infection of CD4-positive and CCR5-expressing canine thymus cells. Recombinant HIV-1 viruses (eg. HXBc2, YU2, and additional strains available through the NIH AIDS Research and Reference Reagent Program) expressing firefly luciferase and containing the indicated envelope glycoproteins can be used to infect Cf2Th-CD4-CCR5/CXCR4 cells in the presence of serially diluted modified HIV-1 gp41 polypeptides or antibodies targeted thereto After 48 hours, the cells are lysed and luciferase activity is quantified (Si, Z. H., M. Cayabyab, and J. Sodroski, Journal of Virology, 2001. 75(9): p. 4208-4218 Si, Z. H., et al., PNAS, 2004. 101(14): p. 5036-5041). The identical experiment is performed with the amphotropic murine leukemia virus (AMLV), to monitor for any nonspecific effects of the modified polypeptides or antibodies. […]
HIV-1 infectivity assays were performed using known methods (Madani et al., 2007 Inhibition of human immunodeficiency virus envelope glycoprotein-mediated single cell lysis by low-molecular-weight antagonists of viral entry. J Virol, 81: 532-538; and Si et al., 2001 Envelope glycoprotein determinants of neutralization resistance in a simian-human immunodeficiency virus (SHIV-HXBc2P 3.2) derived by passage in monkeys. J Virol, 75:4208-4218; both incorporated herein by reference). […] D-luciferin (50 μL of 1 mM stock in 100 μL luciferin buffer) is then added to each well and luciferase activity measured using a luminometer (EG&G Berthold).
To assess the functional impact of hydrocarbon stapling on gp41-based fusion inhibitor activity, SAH-gp41 peptides were tested and compared to their unmodified counterparts in a luciferase-based HIV-1 infectivity assay. Recombinant HIV-1 bearing the envelope glycoproteins from three distinct HIV-1 strains, HXBc2, ADA, and HXBc2P 3.2, and a negative control virus bearing the amphotropic murine leukemia virus (A-MLV) envelope glycoproteins, were evaluated. […]

[4] = test system: HIV-1 strains HXBc2, ADA, and HXBc2P 3.2; test: Luciferase-based HIV-1 infectivity assay, three strains; type: cell-based
Description: Also the direct inhibitory activity of modified polypeptides and the antibodies targeted thereto can be quantified based upon their capacity to directly block HIV infection of CD4-positive and CCR5-expressing canine thymus cells. […] The identical experiment is performed with the amphotropic murine leukemia virus (AMLV), to monitor for any nonspecific effects of the modified polypeptides or antibodies.
as §1
Recombinant HIV-1 bearing the envelope glycoproteins from three distinct HIV-1 strains, HXBc2, ADA, and HXBc2P 3.2, and a negative control virus bearing the amphotropic murine leukemia virus (A-MLV) envelope glycoproteins, were evaluated.

chymotrypsin = biological target: T1, chymotrypsin (Bos taurus, UniProt P00766); test: Protease resistance assay, chymotrypsin (LC/MS); type: in vitro ADME; settings: pH 7.4, 0.5 chymotrypsin, peptide 25 μM
T1 construct: purchased Sigma
Description: The DAD signal was set to 280 nm with an 8 nm bandwidth and MSD set to scan mode with one channel at (M+2H)/2, +1 mass units and the other at (M+3H)/3, +1 mass units. Integration of each MSD signal yielded areas under the curve of >10^8 counts. Reaction samples were composed of 5 μL peptide in DMSO (1 mM stock) and 195 μL of buffer consisting of 50 mM phosphate buffer pH 7.4 containing 2 mM CaCl2. Upon injection of the 0 hr time point sample, 2 μL of 50 ng/μL chymotrypsin (Sigma) was added and the amount of intact peptide quantitated by serial injection over time. An internal control of acetylated tryptophan carboxamide at a concentration of 100 μM was used to normalize each MSD data point. A plot of MSD area versus time yielded an exponential decay curve and half-lives were determined by nonlinear regression analysis using Prism software (GraphPad).

## CCCC[C@H](NC(C)=O)C(=O)N[C@H](C(=O)N[C@@H](Cc1c[nH]c2ccccc12)C(=O)N[C@@]1(C)CCCC=CCCC[C@@](C)(C(=O)N[C@@H](CCC(=O)O)C(=O)N[C@H](C(=O)N[C@@H](CC(N)=O)C(=O)N[C@@H](CC(N)=O)C(=O)N[C@@H](Cc2ccc(O)cc2)C(=O)N[C@H](C(=O)N[C@@H](CO)C(=O)N[C@@H](CC(C)C)C(=O)N[C@H](C(=O)N[C@@H](Cc2c[nH]cn2)C(=O)N[C@@H](CO)C(=O)N[C@@H](CC(C)C)C(=O)N[C@H](C(=O)N[C@@H](CCC(=O)O)C(=O)N[C@@H](CCC(=O)O)C(=O)N[C@@H](CO)C(=O)N[C@@H](CCC(N)=O)C(=O)N[C@@H](CC(N)=O)C(=O)N[C@@H](CCC(N)=O)C(=O)N[C@@]2(C)CCCC=CCCC[C@@](C)(C(=O)N[C@@H](CCC(N)=O)C(=O)N[C@@H](CCC(=O)O)C(=O)N[C@@H](CC(C)C)C(=O)N[C@@H](CC(C)C)C(=O)N[C@@H](CCC(=O)O)C(N)=O)NC(=O)[C@H](CC(N)=O)NC(=O)[C@H](CCCCN)NC(=O)[C@H](CCC(=O)O)NC2=O)[C@@H](C)CC)[C@@H](C)CC)[C@@H](C)O)[C@@H](C)CC)NC(=O)[C@H](CC(=O)O)NC(=O)[C@H](Cc2c[nH]c3ccccc23)NC(=O)[C@H](CCC(=O)O)NC1=O)[C@@H](C)O [SAH-gp41(626-662)(A, F)] (Ac-[Nle]TW[S5]EWD[S5]EINNYTSLIHSLIEESQNQ[S5]EKN[S5]QELLE-NH2; staple 4-8, 28-32; N-terminus and C-terminus assumed)
[1]; 10 mg/kg, blood samples at 30 minutes
  level measured in the blood, fold of unmodified peptide: more than 6 fold
[1]; intravenous, 10 mg/kg, plasma concentrations of intact peptide
  in vivo stability, in words: marked in vivo stability
[1]; noncompartmental analysis
  fold decrease in clearance: about 10 fold
[1]; noncompartmental analysis, serial blood draws
  fold enhancement in area under the curve (AUC): about 10 fold
[1]; oral gavage, 30 minutes after administration
  intact peptide in blood/plasma after oral administration: measurable and dose-responsive levels; also recorded: measurable and dose-responsive plasma concentrations
other
  CL: 1.0 mL/min/kg
[2]
  functional activity against HR1 double-mutant HIV-1, in words: dose-responsively suppressed HIV-1 infectivity
Chymotrypsin, pH 7
  Half-Life: 5.58 h
[3]
  anti-YU2 activity, in words: enhanced anti-YU2 activity
[4]
  anti-HIV-1 (anti-viral) activity, in words: potent anti-viral activity
chymotrypsin
  Half-Life: 5.02 h
